Data reported in patent publication US10149839B2, “Chemical compounds” (AstraZeneca AB, priority 2016, dated 2018).
Values after ≈ are worked out from the molar mass of the structure shown.

Legend:
[1] = Human plasma protein binding (equilibrium dialysis); assay type: in vitro ADME; settings: dialysis 18 hours
[2] = Thermodynamic solubility (shake flask); assay type: physicochemical; settings: aqueous phosphate buffer pH 7.4, 24 hours
physchem = settings: 1-octanol/aqueous buffer, pH 7.4
[3] = biological target: Estrogen Receptor (ERα) in MCF-7 cells (Homo sapiens (Human), UniProt P03372); test: MCF-7 ER down-regulation assay (immuno-fluorescence); assay type: cell-based; settings: for IC50: 18-22 hours incubation; for % downregulation: shown in brackets where not >90%
Chain of Estrogen Receptor (ERα) in MCF-7 cells (P03372 whole entry): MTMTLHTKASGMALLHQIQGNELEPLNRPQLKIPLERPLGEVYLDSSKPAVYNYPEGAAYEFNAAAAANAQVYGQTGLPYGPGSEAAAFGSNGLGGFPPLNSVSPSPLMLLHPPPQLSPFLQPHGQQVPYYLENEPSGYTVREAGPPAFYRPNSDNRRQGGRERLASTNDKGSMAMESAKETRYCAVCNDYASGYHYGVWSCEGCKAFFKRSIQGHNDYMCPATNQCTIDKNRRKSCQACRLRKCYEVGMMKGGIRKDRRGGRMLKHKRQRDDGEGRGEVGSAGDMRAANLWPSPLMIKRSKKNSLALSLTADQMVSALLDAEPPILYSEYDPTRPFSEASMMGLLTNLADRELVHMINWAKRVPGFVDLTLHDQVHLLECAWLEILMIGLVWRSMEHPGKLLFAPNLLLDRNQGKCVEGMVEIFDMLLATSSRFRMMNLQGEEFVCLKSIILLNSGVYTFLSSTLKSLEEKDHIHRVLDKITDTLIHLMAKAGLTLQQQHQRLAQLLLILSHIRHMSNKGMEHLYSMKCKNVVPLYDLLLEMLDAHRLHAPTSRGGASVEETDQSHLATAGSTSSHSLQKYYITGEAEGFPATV

[4] = aqueous phosphate buffer, 25 °C, pH 7.4, aqueous buffer, thermodynamic from solid

| Compound | Human plasma protein binding (% free) [1] | solubility at 24 h [2, 4] | logD (physchem) | IC50 [3] | % downregulation [3] | solubility at 24 h ([2]; 25° C.) |
| --- | --- | --- | --- | --- | --- | --- |
| C[C@@H]1Cc2c([nH]c3ccccc23)[C@@H](c2c(F)cc(OCCNCCCF)cc2F)N1C[C@H](F)CF (single isomer, unassigned) [Example 15] | 1.5 % free | 83 µM (≈ 41.1 µg/mL) | 3.4 | – | – | – |
| C[C@@H]1Cc2c([nH]c3ccccc23)[C@@H](c2c(F)cc(OCCNCCCF)cc2F)N1CC(C)(F)CO (single isomer, unassigned) [Example 17] | 3.9 % free | 629 µM (≈ 319 µg/mL) | 2.6 | 0.086 nM | (85%) | – |
| C[C@@H]1Cc2c([nH]c3ccccc23)[C@@H](c2ccc(OCCNCCCF)cc2)N1CC(F)CF (single isomer, unassigned) [Example 25] | 1.6 % free | – | 3 | 0.36 nM | – | 135 µM (≈ 62 µg/mL) |
| C[C@@H]1Cc2c([nH]c3ccccc23)[C@@H](c2c(F)cc(OCCNCCCF)cc2F)N1CC(C)(F)F [Example 12, N-(2-(4-((1R,3R)-2-(2,2-difluoropropyl)-3-methyl-2,3,4,9-tetrahydro-1H-pyrido[3,4-b]indol-1-yl)-3,5-difluorophenoxy)ethyl)-3-fluoropropan-1-amine] | 0.61 % free | 12 µM (≈ 5.95 µg/mL) | 4.1 | – | – | – |
| C[C@@H]1Cc2c([nH]c3ccccc23)[C@@H](c2c(F)cc(OCCNCCCF)cc2F)N1CC(F)F [Example 13, N-(2-(4-((1R,3R)-2-(2,2-difluoroethyl)-3-methyl-2,3,4,9-tetrahydro-1H-pyrido[3,4-b]indol-1-yl)-3,5-difluorophenoxy)ethyl)-3-fluoropropan-1-amine] | 1.6 % free | 150 µM (≈ 72.2 µg/mL) | 3.4 | – | – | – |
| CC(CNCCCF)Oc1cc(F)c([C@@H]2c3[nH]c4ccccc4c3C[C@@H](C)N2CC(C)(C)F)c(F)c1 (stereo partly drawn) [Example 19, 2-(3,5-difluoro-4-((1R,3R)-2-(2-fluoro-2-methylpropyl)-3-methyl-2,3,4,9-tetrahydro-1H-pyrido[3,4-b]indol-1-yl)phenoxy)-N-(3-fluoropropyl)propan-1-amine] | 0.56 % free | 11 µM (≈ 5.56 µg/mL) | > 4.4 | 0.41 nM | (68%) | – |
| C[C@@H]1Cc2c([nH]c3ccccc23)[C@@H](c2c(F)cc(OCC(CO)NCCCF)cc2F)N1CC(C)(C)F (stereo partly drawn) [Example 20, 3-(3,5-difluoro-4-((1R,3R)-2-(2-fluoro-2-methylpropyl)-3-methyl-2,3,4,9-tetrahydro-1H-pyrido[3,4-b]indol-1-yl)phenoxy)-2-((3-fluoropropyl)amino)propan-1-ol] | <0.30 % free | 18 µM (≈ 9.39 µg/mL) | > 3.9 | 0.26 nM | – | – |
| C[C@@H]1Cc2c([nH]c3ccccc23)[C@@H](c2ccc(OCCNCCCF)cc2F)N1CC1(F)CC1 [Example 21, 3-fluoro-N-(2-(3-fluoro-4-((1R,3R)-2-((1-fluorocyclopropyl)methyl)-3-methyl-2,3,4,9-tetrahydro-1H-pyrido[3,4-b]indol-1-yl)phenoxy)ethyl)propan-1-amine] | 2.1 % free | 149 µM (≈ 70.3 µg/mL) | 3.4 | 0.48 nM | – | – |
| C[C@@H]1Cc2c([nH]c3ccccc23)[C@@H](c2ccc(OCCNCCCF)cc2F)N1CC1(F)COC1 [Example 22, 3-fluoro-N-(2-(3-fluoro-4-((1R,3R)-2-((3-fluorooxetan-3-yl)methyl)-3-methyl-2,3,4,9-tetrahydro-1H-pyrido[3,4-b]indol-1-yl)phenoxy)ethyl)propan-1-amine] | 6.1 % free | 197 µM (≈ 96.1 µg/mL) | 3 | – | – | – |
| C[C@@H]1Cc2c([nH]c3ccccc23)[C@@H](c2ccc(OCCNCCCF)cc2)N1CC1(F)CC1 [Example 23, 3-fluoro-N-(2-(4-((1R,3R)-2-((1-fluorocyclopropyl)methyl)-3-methyl-2,3,4,9-tetrahydro-1H-pyrido[3,4-b]indol-1-yl)phenoxy)ethyl)propan-1-amine] | 1.7 % free | 122 µM (≈ 55.3 µg/mL) | 3.3 | – | – | – |
| C[C@@H]1Cc2c([nH]c3ccccc23)[C@@H](c2ccc(OCCNCCCF)cc2)N1CC1(F)COC1 [Example 24, 3-fluoro-N-(2-(4-((1R,3R)-2-((3-fluorooxetan-3-yl)methyl)-3-methyl-2,3,4,9-tetrahydro-1H-pyrido[3,4-b]indol-1-yl)phenoxy)ethyl)propan-1-amine] | – | 370 µM (≈ 174 µg/mL) | – | – | – | – |
| C[C@@H]1Cc2c([nH]c3ccccc23)[C@@H](c2ccc(OC[C@H](C)NCCCF)cc2)N1CC1(F)COC1 [Example 27, 3-fluoro-N-((S)-1-(4-((1R,3R)-2-((3-fluorooxetan-3-yl)methyl)-3-methyl-2,3,4,9-tetrahydro-1H-pyrido[3,4-b]indol-1-yl)phenoxy)propan-2-yl)propan-1-amine] | 5.2 % free | 281 µM (≈ 136 µg/mL) | 3 | 1.5 nM | (79%) | – |
| C[C@@H]1Cc2c([nH]c3ccccc23)[C@@H](c2ccc(OCCNCCCF)cc2C#N)N1CC1(F)CC1 [Example 29, 2-((1R,3R)-2-((1-fluorocyclopropyl)methyl)-3-methyl-2,3,4,9-tetrahydro-1H-pyrido[3,4-b]indol-1-yl)-5-(2-((3-fluoropropyl)amino)ethoxy)benzonitrile] | – | – | – | 19 nM | (57%) | – |
| COc1cc(OCCNCCCF)ccc1[C@@H]1c2[nH]c3ccccc3c2C[C@@H](C)N1CC(F)F [Example 43, N-(2-(4-((1R,3R)-2-(2,2-Difluoroethyl)-3-methyl-2,3,4,9-tetrahydro-1H-pyrido[3,4-b]indol-1-yl)-3-methoxyphenoxy)ethyl)-3-fluoropropan-1-amine] | – | 163 µM (≈ 77.5 µg/mL) | – | – | – | – |
| COCC(C)(F)CN1[C@H](c2c(F)cc(OCCNCCCF)cc2F)c2[nH]c3ccccc3c2C[C@H]1C (stereo partly drawn) [Example 50, N-(2-(3,5-difluoro-4-((1R,3R)-2-(2-fluoro-3-methoxy-2-methylpropyl)-3-methyl-2,3,4,9-tetrahydro-1H-pyrido[3,4-b]indol-1-yl)phenoxy)ethyl)-3-fluoropropan-1-amine] | 0.61 % free | 47 µM (≈ 24.5 µg/mL) | 3.9 | – | – | – |
| C[C@@H]1Cc2c([nH]c3ccccc23)[C@@H](c2ccc(OCCNCCCF)cc2F)N1CC(C)(F)F [Example 55, N-(2-(4-((1R,3R)-2-(2,2-difluoropropyl)-3-methyl-2,3,4,9-tetrahydro-1H-pyrido[3,4-b]indol-1-yl)-3-fluorophenoxy)ethyl)-3-fluoropropan-1-amine] | – | 32 µM (≈ 15.3 µg/mL) | 4.1 | 0.2 nM | (89%) | – |
| COc1cc(OCCNCCCF)ccc1[C@@H]1c2[nH]c3ccccc3c2C[C@@H](C)N1CC(F)(F)CO [Example 58, 2,2-difluoro-3-((1R,3R)-1-(4-(2-((3-fluoropropyl)amino)ethoxy)-2-methoxyphenyl)-3-methyl-1,3,4,9-tetrahydro-2H-pyrido[3,4-b]indol-2-yl)propan-1-ol] | – | 418 µM (≈ 211 µg/mL) | – | – | – | – |
| COc1cc(NCCNCCCF)ncc1[C@@H]1c2[nH]c3ccccc3c2C[C@@H](C)N1CC(F)(F)CO [Example 65, 2,2-difluoro-3-((1R,3R)-1-(6-((2-((3-fluoropropyl)amino)ethyl)amino)-4-methoxypyridin-3-yl)-3-methyl-1,3,4,9-tetrahydro-2H-pyrido[3,4-b]indol-2-yl)propan-1-ol] | 14 % free | 911 µM (≈ 461 µg/mL) | 2.1 | – | – | – |
| COc1cc(NCCNCCCF)ncc1[C@@H]1c2[nH]c3ccccc3c2C[C@@H](C)N1CC(F)F [Example 67, N1-(5-((1R,3R)-2-(2,2-difluoroethyl)-3-methyl-2,3,4,9-tetrahydro-1H-pyrido[3,4-b]indol-1-yl)-4-methoxypyridin-2-yl)-N2-(3-fluoropropyl)ethane-1,2-diamine] | – | > 1000 µM | 2.5 | 0.87 nM | – | – |
| COc1cc(NCCNCCCF)ncc1[C@@H]1c2[nH]c3ccccc3c2C[C@@H](C)N1CC(C)(F)F [Example 68, N1-(5-((1R,3R)-2-(2,2-difluoropropyl)-3-methyl-2,3,4,9-tetrahydro-1H-pyrido[3,4-b]indol-1-yl)-4-methoxypyridin-2-yl)-N2-(3-fluoropropyl)ethane-1,2-diamine] | – | 438 µM (≈ 214 µg/mL) | 3.1 | 0.33 nM | – | – |
| C[C@@H]1Cc2c([nH]c3ccccc23)[C@@H](c2c(F)cc(OCCNCCCF)cc2F)N1CC1(CF)COC1 [Example 72, N-(2-(3,5-difluoro-4-((1R,3R)-2-((3-(fluoromethyl)oxetan-3-yl)methyl)-3-methyl-2,3,4,9-tetrahydro-1H-pyrido[3,4-b]indol-1-yl)phenoxy)ethyl)-3-fluoropropan-1-amine] | – | 96 µM (≈ 49.9 µg/mL) | 3.4 | – | – | – |
| COc1nc(NCCNCCCF)ccc1[C@@H]1c2[nH]c3ccccc3c2C[C@@H](C)N1CC(F)F [Example 76, N1-(5-((1R,3R)-2-(2,2-difluoroethyl)-3-methyl-2,3,4,9-tetrahydro-1H-pyrido[3,4-b]indol-1-yl)-6-methoxypyridin-2-yl)-N2-(3-fluoropropyl)ethane-1,2-diamine] | – | 335 µM (≈ 159 µg/mL) | 3 | 0.32 nM | – | – |
| COc1nc(NCCNCCCF)ccc1[C@@H]1c2[nH]c3ccccc3c2C[C@@H](C)N1CC(C)(F)F [Example 78, N1-(5-((1R,3R)-2-(2,2-difluoropropyl)-3-methyl-2,3,4,9-tetrahydro-1H-pyrido[3,4-b]indol-1-yl)-6-methoxypyridin-2-yl)-N2-(3-fluoropropyl)ethane-1,2-diamine] | – | 192 µM (≈ 94 µg/mL) | 4 | 0.21 nM | – | – |
